The source of these data is PMC10035951, “Selenium-analogs based on natural sources as cancer-associated carbonic anhydrase isoforms IX and XII inhibitors” (Journal of Enzyme Inhibition and Medicinal Chemistry, 2023).

One experiment addresses T1, hCA I (Homo sapiens, UniProt P00915).
T1 construct: made in house
The experiment can be described thus: CA catalysed CO2 hydration, stopped-flow inhibition. In kind it is biochemical. How it is done:
(§1) The uncatalyzed rates were determined in the same manner and subtracted from the total observed rates. Stock solutions of inhibitor (0.1 mM) were prepared in distilled − deionized water and dilutions up to 0.01 nM were done thereafter with the assay buffer. Inhibitor and enzyme solutions were preincubated together for 15 min at room temperature before assay to allow for the formation of the E − I complex. The inhibition constants were obtained by nonlinear least-squares methods using PRISM 3 and the Cheng − Prusoff equation, as reported earlier,[39]^,[40] and represent the mean from at least three different determinations. […] All human CA (hCA) isoforms were recombinant ones obtained in-house as reported earlier.[41]^,[42]

The target of a further experiment is T2, hCA IX (Homo sapiens, UniProt Q16790).
T2 construct: made in house
Described as above. In kind it is biochemical. The note with it: for pKi: recombinant hCA IX, stopped-flow CO2 hydration, 15 min preincubation. Here is the method:
as §1

A further experiment concerns the target T3, hCA II (Homo sapiens, UniProt P00918).
T3 construct: made in house
Described as above. In kind it is biochemical. Here is the method:
as §1

A further experiment has as its target T4, hCA XII (Homo sapiens, UniProt O43570).
T4 construct: made in house
The experiment is described as above. In kind it is biochemical. Here is the method: An Applied Photophysics stopped-flow instrument has been used for assaying the CA catalysed CO2 hydration activity.[38] Phenol red (at a concentration of 0.2 mM) has been used as an indicator, working at the absorbance maximum of 557 nm, with 20 mM Hepes (pH 7.5) as a buffer and 20 mM Na2SO4 (for maintaining constant the ionic strength), following the initial rates of the CA-catalysed CO2 hydration reaction for a period of 10–100 s. The CO2 concentrations ranged from 1.7 to 17 mM for the determination of the kinetic parameters and inhibition constants. […]. The uncatalyzed rates were determined in the same manner and subtracted from the total observed rates. Stock solutions of inhibitor (0.1 mM) were prepared in distilled − deionized water and dilutions up to 0.01 nM were done thereafter with the assay buffer. Inhibitor and enzyme solutions were preincubated together for 15 min at room temperature before assay to allow for the formation of the E − I complex. The inhibition constants were obtained by nonlinear least-squares methods using PRISM 3 and the Cheng − Prusoff equation, as reported earlier,[39]^,[40] and represent the mean from at least three different determinations. The enzyme concentrations were in the range 3–11 nM. All human CA (hCA) isoforms were recombinant ones obtained in-house as reported earlier.[41]^,[42]

Experiment [1] concerns hCA isoforms I, II, VA, IX, and XII. The experiment can be described thus: CA inhibition, summary statements over all tested isoforms. In kind it is biochemical, human. The note with it: for isoform selectivity (in words): from the Ki values of Table 1; for pKi: all CA isoforms tested for series b, read-out: Ki range over all CA isoforms. How it is done: An Applied Photophysics stopped-flow instrument has been used for assaying the CA catalysed CO2 hydration activity.[38] Phenol red (at a concentration of 0.2 mM) has been used as an indicator, working at the absorbance maximum of 557 nm, with 20 mM Hepes (pH 7.5) as a buffer and 20 mM Na2SO4 (for maintaining constant the ionic strength), following the initial rates of the CA-catalysed CO2 hydration reaction for a period of 10–100 s. The CO2 concentrations ranged from 1.7 to 17 mM for the determination of the kinetic parameters and inhibition constants. For each inhibitor, at least six traces of the initial 5 − 10% of the reaction have been used for determining the initial velocity. The uncatalyzed rates were determined in the same manner and subtracted from the total observed rates. Stock solutions of inhibitor (0.1 mM) were prepared in distilled − deionized water and dilutions up to 0.01 nM were done thereafter with the assay buffer. Inhibitor and enzyme solutions were preincubated together for 15 min at room temperature before assay to allow for the formation of the E − I complex. The inhibition constants were obtained by nonlinear least-squares methods using PRISM 3 and the Cheng − Prusoff equation, as reported earlier,[39]^,[40] and represent the mean from at least three different determinations. The enzyme concentrations were in the range 3–11 nM. All human CA (hCA) isoforms were recombinant ones obtained in-house as reported earlier.[41]^,[42]

The mark [2] stands for this setting: recombinant hCA I, stopped-flow CO2 hydration, 15 min preincubation, read-out: Ki hCA I.
Where [3] appears, read: recombinant hCA II, stopped-flow CO2 hydration, 15 min preincubation, read-out: Ki hCA II.
The mark [4] stands for this setting: recombinant hCA XII, stopped-flow CO2 hydration, 15 min preincubation, read-out: Ki hCA XII.

pKi: −log10 of the molar value. Read-outs that look alike come from different tables or passages of the source.

T4 sequence (O43570 25-354): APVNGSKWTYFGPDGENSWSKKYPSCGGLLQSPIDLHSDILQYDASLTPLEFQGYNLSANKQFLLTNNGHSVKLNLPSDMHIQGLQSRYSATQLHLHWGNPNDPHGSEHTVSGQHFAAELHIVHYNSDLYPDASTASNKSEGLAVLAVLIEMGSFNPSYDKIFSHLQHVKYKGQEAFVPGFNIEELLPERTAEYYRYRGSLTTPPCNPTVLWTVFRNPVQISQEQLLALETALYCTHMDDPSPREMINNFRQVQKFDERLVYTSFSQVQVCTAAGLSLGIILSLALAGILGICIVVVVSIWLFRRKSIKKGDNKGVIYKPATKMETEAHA
T1 sequence (P00915 whole entry): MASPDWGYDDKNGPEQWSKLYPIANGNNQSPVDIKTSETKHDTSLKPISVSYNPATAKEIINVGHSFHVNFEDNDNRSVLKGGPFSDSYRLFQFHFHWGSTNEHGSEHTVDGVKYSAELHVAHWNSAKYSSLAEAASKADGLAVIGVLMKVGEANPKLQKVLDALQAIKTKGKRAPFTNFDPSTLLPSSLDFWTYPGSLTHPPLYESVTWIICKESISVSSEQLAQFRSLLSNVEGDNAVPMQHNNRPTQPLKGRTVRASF

Take `C=CC[Se]C(=O)C12CC3CC(CC(C3)C1)C2` [Compound 1a]: the negative logarithm of the Ki (pKi) on hCA I (setting [2]), on hCA IX and on hCA II (setting [3]) was below 4.00 throughout.
For the molecule `C#CC[Se]C(=O)C12CC3CC(CC(C3)C1)C2` [Compound 1b], the pKi at hCA I (setting [2]) was below 4.00; at hCA IX, 5.04; on hCA II (setting [3]), below 4.00; on hCA XII (setting [4]) it was 4.55. The “isoform selectivity (in words)” value in experiment [1] is “selectivity for tumour-associated isoforms IX and XII”.
Take `C=CC[Se]C(=O)c1ccccc1` [Compound 2a]: the pKi at hCA I (setting [2]), at hCA IX and on hCA II (setting [3]) was below 4.00 each time.
With `C#CC[Se]C(=O)c1ccccc1` [Compound 2b], the negative logarithm of the Ki (pKi) at hCA I (setting [2]) was 4.09; on hCA IX, 5.11; on hCA II (setting [3]) it was below 4.00; on hCA XII (setting [4]), 4.25. Further, at hCA IX (CA IX versus CA I), the “times higher inhibition of CA IX than of isoform I” value is given as around 13 times. Also, the “times higher inhibition of CA IX than of isoform II” value at hCA IX (CA IX versus CA II) is recorded as around 10 times.
With `C=CC[Se]C(=O)c1ccccc1Cl` [Compound 3a], the pKi at hCA I (setting [2]), at hCA IX and at hCA II (setting [3]) was below 4.00 each time.
Consider `C#CC[Se]C(=O)c1ccccc1Cl` [Compound 3b], for which the pKi on hCA I was 4.38; on hCA IX, 4.38; at hCA II, below 4.00; on hCA XII it was 4.54.
On to `C#CC[Se]C(=O)c1ccc2c(c1)OCO2` [Compound 4b], for which the pKi at hCA I (setting [2]) is 4.50; at hCA IX, 4.17; on hCA II (setting [3]), 4.27; on hCA XII (setting [4]), below 4.00.
On to `C=CC[Se]C(=O)C=Cc1ccccc1` [Compound 5a], for which the pKi on hCA I (setting [2]), at hCA IX and on hCA II (setting [3]) was below 4.00 each time.
In the case of `C#CC[Se]C(=O)C=Cc1ccccc1` [Compound 5b], the pKi at hCA I (setting [2]) was 4.62; on hCA IX, 4.10; on hCA II (setting [3]), 4.37; at hCA XII (setting [4]) it was below 4.00.
On to `C#CC[Se]C(=O)CCc1ccccc1` [Compound 6b], for which the pKi is 5.51 at hCA I; 4.60 at hCA IX; 5.02 on hCA II; 5.15 on hCA XII; 4.31 to 5.66 in experiment [1]. The “times more potent than analog without the spacer (2b)” value on hCA I (CA I, Ki ratio versus 2b) is reported as 26 times. The “times more potent than analog with the double-bond spacer (5b)” value on hCA I (CA I, Ki ratio versus 5b) worked out at 7.7 times.
For the molecule `C=CC[Se]C(=O)c1cccnc1` [Compound 7a], the pKi at hCA I (setting [2]), at hCA IX and at hCA II (setting [3]) was below 4.00 each time.
For `C#CC[Se]C(=O)c1cccnc1` [Compound 7b], the pKi at hCA I (setting [2]) was 4.52; at hCA IX, 4.42; at hCA II (setting [3]), 4.18; at hCA XII (setting [4]), 4.07.
In the case of `C=CC[Se]C(=O)c1cccnc1Cl` [Compound 8a], the pKi at hCA I (setting [2]) was below 4.00; on hCA IX, 4.05; on hCA II (setting [3]), below 4.00.
On to `C#CC[Se]C(=O)c1cccnc1Cl` [Compound 8b], for which the “increase of inhibitory activity compared to unsubstituted pyridine” value on hCA I (CA I, Ki ratio versus 7b) was 13.7 times. For the same molecule, the pKi on hCA I (setting [2]) was 5.66; on hCA IX, 4.31; on hCA II (setting [3]), 5.07; on hCA XII (setting [4]) it was 5.02; in experiment [1], 4.31 to 5.66.
With `C=CC[Se]C(=O)c1cccs1` [Compound 9a], the pKi at hCA I (setting [2]), at hCA IX and at hCA II (setting [3]) was below 4.00 throughout.
For the molecule `C#CC[Se]C(=O)c1cccs1` [Compound 9b], the pKi is 5.04 on hCA I (setting [2]), below 4.00 on hCA IX, 4.33 on hCA II (setting [3]) and 4.01 at hCA XII (setting [4]).
Regarding `C=CC[Se]C(=O)c1sccc1Cl` [Compound 10a], the pKi on hCA I (setting [2]), on hCA IX and at hCA II (setting [3]) was below 4.00 throughout.
`C#CC[Se]C(=O)c1sccc1Cl` [Compound 10b]: the negative-log Ki (pKi) at hCA I (setting [2]) is below 4.00; on hCA IX it was below 4.00; on hCA II (setting [3]), 4.05; at hCA XII (setting [4]), 4.01.
`C=CC[Se]C(=O)c1ccco1` [Compound 11a]: the pKi on hCA I (setting [2]), at hCA IX and on hCA II (setting [3]) was below 4.00 in each case.
As to `C#CC[Se]C(=O)c1ccco1` [Compound 11b], the pKi was 5.07 at hCA I (setting [2]), 5.15 on hCA IX, 4.30 on hCA II (setting [3]) and 4.22 at hCA XII (setting [4]).
As to `C=CC[Se]C(=O)c1ccno1` [Compound 12a], the pKi at hCA I (setting [2]), at hCA IX and on hCA II (setting [3]) was below 4.00 throughout.
`C#CC[Se]C(=O)c1ccno1` [Compound 12b]: on hCA I (CA I, Ki ratio versus 11b), the “decrease of inhibitory capacity on substitution of furan ring (11b) by isoxazole” value was around 7 fold. Further, the pKi was 4.23 on hCA I (setting [2]), 4.65 at hCA IX, below 4.00 at hCA II (setting [3]) and 4.18 at hCA XII (setting [4]).
In the case of `C=CC[Se]C(=O)c1ccccc1O` [Compound 13a], the pKi at hCA I (setting [2]), at hCA IX and on hCA II (setting [3]) was below 4.00 in each case.
Take `C#CC[Se]C(=O)c1ccccc1O` [Compound 13b]: the pKi was 4.63 at hCA I (setting [2]), 4.26 at hCA IX, below 4.00 at hCA II (setting [3]) and below 4.00 at hCA XII (setting [4]). The “isoform selectivity (in words)” value in experiment [1] is “selectivity for cytosolic CA I isoform and tumour-associated CA IX”.
`C=CC[Se]C(=O)c1ccccc1OC(C)=O` [Compound 14a]: the pKi at hCA I (setting [2]), on hCA IX and at hCA II (setting [3]) was below 4.00 each time.
Take `C#CC[Se]C(=O)c1ccccc1OC(C)=O` [Compound 14b]: the pKi was 5.30 at hCA I (setting [2]), below 4.00 at hCA IX, 4.26 at hCA II (setting [3]) and 4.05 at hCA XII (setting [4]).
`C#CC[Se]C(=O)C(C)c1ccc(CC(C)C)cc1` (centres unmarked) [Compound 15b]: the pKi was 4.11 at hCA I (setting [2]), 4.32 on hCA IX, below 4.00 at hCA II (setting [3]) and below 4.00 at hCA XII (setting [4]). The “isoform selectivity (in words)” value in experiment [1] was “selectivity for cytosolic CA I isoform and tumour-associated CA IX”.
For `C=CC[Se]C(=O)[C@@H](C)c1ccc2cc(OC)ccc2c1` [Compound 16a], the pKi at hCA I (setting [2]), at hCA IX and on hCA II (setting [3]) was below 4.00 throughout.
For the molecule `C#CC[Se]C(=O)[C@@H](C)c1ccc2cc(OC)ccc2c1` [Compound 16b], the pKi on hCA I (setting [2]) was 4.04; on hCA IX, 4.61; on hCA II (setting [3]), below 4.00; at hCA XII (setting [4]) it was below 4.00. Also, the “isoform selectivity (in words)” value in experiment [1] was “selectivity for cytosolic CA I isoform and tumour-associated CA IX”.
Turning to `C#CC[Se]C(=O)Cc1c(C)n(C(=O)c2ccc(Cl)cc2)c2ccc(OC)cc12` [Compound 17b], the pKi on hCA I (setting [2]) was below 4.00; at hCA IX it was 4.23; on hCA II (setting [3]), below 4.00; at hCA XII (setting [4]), below 4.00. In addition, in experiment [1], the “isoform selectivity (in words)” value is listed as “selectivity for tumour-associated isoform IX”.
As for `C#CC[Se]C(=O)c1ccccc1Nc1cccc(C)c1C` [Compound 18b], the pKi was below 4.00 at hCA I (setting [2]), 5.02 at hCA IX, 5.35 at hCA II (setting [3]) and 4.33 on hCA XII (setting [4]). Also, the “fold greater inhibition potency for CA II than for CA I” value on hCA II (CA II versus CA I) stood at 22 fold.
